# Experimental data from publication PMC9363195, “Preclinical Pharmacokinetics, Biodistribution, and Acute Toxicity Evaluation of Caerin 1.9 Peptide in Sprague Dawley Rats” (Evidence-based Complementary and Alternative Medicine : eCAM, 2022).
# Peptide text beside a SMILES is read from it.
# System: SD rats
# Test: Hematology and coagulation analysis in acute toxicity study
# Format: in vivo, Sprague Dawley rats
# Details: day 15, mean ± SD
# Method: Forty SD rats (20 males and 20 females) were randomly divided into 4 groups (Figure 1). All rats were given F3 once on the day of the experiment.
# Twelve SD rats (6 males, 6 females) were given a daily subcutaneous injection of F3 at a dose of 10.0 mg/kg for consecutive 14 days. The first day of administration was recorded as day 1.
# For 14 days, the body weight was measured before F3 administration on the first day of the experiment and once a week thereafter, with additional measurements on the day before and on the day of the planned autopsy. Food intake was recorded once a week. The rats were anesthetized by inhalation of 70% CO2/30% O2 before dissection, and blood samples were taken for hematology and biochemical analysis. The collected tissue was weighed and preserved for pathological examination.
# Blood smears were used to investigate the morphology of basophils (ABBASO), eosinophils (ABEOS), neutrophils (ABNEUT), monocytes (ABMONO), and lymphocytes (ABLYMP) in the peripheral blood. When white blood cell classification and reticulocyte count cannot be calculated directly by ADVIA 2120i, they were manually counted and calculated following the procedure published previously. The number of platelets was determined manually when they could not be counted mechanically because of coagulation. Wright-Giemsa staining was used to prepare blood smears for cell morphology.
# Liver and renal functions were measured with special attention to alanine aminotransferase (ALT), aspartate aminotransferase (AST), alkaline phosphatase (ALP), serum creatinine, total bilirubin, and urea levels. In addition, the levels of glucose, calcium, total protein, and albumin in serum samples were measured. The blood biochemical test, hematology test, and coagulation function test were detected by Hitachi 7180 automatic biochemical analyzer, Siemens ADVIA 2120i hematology analyzer, and Stargo Emo Express Hemagglutination analyzer, respectively.
# [1] = female SD rats, s.c. 10.0 mg/kg daily x14 d, n=6
# [2] = female SD rats, single s.c. 1.0 mg/kg, n=5
# [3] = female SD rats, single s.c. 10.0 mg/kg, n=5
# [4] = female SD rats, single s.c. 100.0 mg/kg, n=5
# [5] = male SD rats, s.c. 10.0 mg/kg daily x14 d, n=6
# [6] = male SD rats, single s.c. 1.0 mg/kg, n=5
# [7] = male SD rats, single s.c. 10.0 mg/kg, n=5
# [8] = male SD rats, single s.c. 100.0 mg/kg, n=5
compound,measurement,setting,value
"CC[C@H](C)[C@H](NC(=O)[C@H](CO)NC(=O)CNC(=O)[C@H](CC(C)C)NC(=O)[C@@H](NC(=O)CNC(=O)[C@H](Cc1ccccc1)NC(=O)[C@H](CC(C)C)NC(=O)CN)C(C)C)C(=O)N[C@@H](C)C(=O)N[C@@H](CCCCN)C(=O)N[C@@H](Cc1c[nH]cn1)C(=O)N[C@H](C(=O)N[C@@H](CC(C)C)C(=O)N1CCC[C@H]1C(=O)N[C@@H](Cc1c[nH]cn1)C(=O)N[C@H](C(=O)N[C@H](C(=O)N1CCC[C@H]1C(=O)N[C@H](C(=O)N[C@H](C(=O)N[C@@H](C)C(=O)N[C@@H](CCC(=O)O)C(=O)N[C@@H](CCCCN)C(=O)N[C@@H](CC(C)C)C(N)=O)[C@@H](C)CC)C(C)C)C(C)C)C(C)C)C(C)C [F3, Caerin 1.9] (H-GLFGVLGSIAKHVLPHVVPVIAEKL-NH2)",ABBASO (basophils),[1],0.01 ± 0 10^9/L
same,ABEOS (eosinophils),[1],0.16 ± 0.07 10^9/L
same,ABLYMP (lymphocytes),[1],7.64 ± 1.61 10^9/L
same,ABMONO (monocytes),[1],0.23 ± 0.08 10^9/L
same,ABNEUT (neutrophils),[1],2.53 ± 0.45 10^9/L
same,ABRETIC,[1],273.87 ± 31.75 10^9/L
same,APTT,[1],14.9 ± 0.28 s
same,HCT,[1],38.2 ± 1.34%
same,HGB,[1],11.62 ± 0.50 g/dL
same,MCH,[1],19.25 ± 0.69 pg
same,MCHC,[1],30.4 ± 0.46 g/dL
same,MCV,[1],63.38 ± 2.38 fL
same,MPV,[1],8.58 ± 0.42 fL
same,PLT,[1],1357.67 ± 169.65 10^9/L
same,PT,[1],20.45 ± 1.16 s
same,RBC,[1],6.04 ± 0.37 10^12/L
same,WBC,[1],10.67 ± 1.900 10^9/L
same,ABBASO (basophils),[2],0.006 ± 0.005 10^9/L
same,ABEOS (eosinophils),[2],0.072 ± 0.034 10^9/L
same,ABLYMP (lymphocytes),[2],5.956 ± 2.336 10^9/L
same,ABMONO (monocytes),[2],0.228 ± 0.234 10^9/L
same,ABNEUT (neutrophils),[2],1.71 ± 1.516 10^9/L
same,ABRETIC,[2],226.5 ± 33.41 10^9/L
same,APTT,[2],16.94 ± 1.15 s
same,HCT,[2],45.34 ± 3.13%
same,HGB,[2],14.44 ± 1.06 g/dL
same,MCH,[2],19.06 ± 0.27 pg
same,MCHC,[2],31.82 ± 0.47 g/dL
same,MCV,[2],59.86 ± 0.56 fL
same,MPV,[2],9.02 ± 0.30 fL
same,PLT,[2],1081.6 ± 83.2 10^9/L
same,PT,[2],20.06 ± 0.75 s
same,RBC,[2],7.584 ± 0.568 10^12/L
same,WBC,[2],8.022 ± 3.840 10^9/L
same,ABBASO (basophils),[3],0.01 ± 0.007 10^9/L
same,ABEOS (eosinophils),[3],0.072 ± 0.032 10^9/L
same,ABLYMP (lymphocytes),[3],6.526 ± 1.92 10^9/L
same,ABMONO (monocytes),[3],0.136 ± 0.034 10^9/L
same,ABNEUT (neutrophils),[3],1.128 ± 0.308 10^9/L
same,ABRETIC,[3],192.02 ± 21.07 10^9/L
same,APTT,[3],18.24 ± 1.36 s
same,HCT,[3],46.98 ± 1.22%
same,HGB,[3],14.9 ± 0.29 g/dL
same,MCH,[3],18.78 ± 0.75 pg
same,MCHC,[3],31.76 ± 0.46 g/dL
same,MCV,[3],59.1 ± 1.71 fL
same,MPV,[3],9.28 ± 0.20 fL
same,PLT,[3],1004.4 ± 93.7 10^9/L
same,PT,[3],19.44 ± 0.70 s
same,RBC,[3],7.954 ± 0.424 10^12/L
same,WBC,[3],7.922 ± 1.865 10^9/L
same,ABBASO (basophils),[4],0.008 ± 0.004 10^9/L
same,ABEOS (eosinophils),[4],0.06 ± 0.031 10^9/L
same,ABLYMP (lymphocytes),[4],5.886 ± 1.807 10^9/L
same,ABMONO (monocytes),[4],0.142 ± 0.094 10^9/L
same,ABNEUT (neutrophils),[4],1.148 ± 0.434 10^9/L
same,ABRETIC,[4],215.84 ± 21.41 10^9/L
same,APTT,[4],17.02 ± 1.47 s
same,HCT,[4],47.16 ± 1.49%
same,HGB,[4],14.96 ± 0.47 g/dL
same,MCH,[4],18.64 ± 1 pg
same,MCV,[4],58.8 ± 2.76 fL
same,MPV,[4],9 ± 0.19 fL
same,PLT,[4],987 ± 86.1 10^9/L
same,PT,[4],19.72 ± 0.50 s
same,RBC,[4],8.042 ± 0.561 10^12/L
same,WBC,[4],7.28 ± 2.163 10^9/L
same,ABBASO (basophils),[5],0.01 ± 0.01 10^9/L
same,ABEOS (eosinophils),[5],0.17 ± 0.06 10^9/L
same,ABLYMP (lymphocytes),[5],10.1 ± 2.26 10^9/L
same,ABMONO (monocytes),[5],0.34 ± 0.09 10^9/L
same,ABNEUT (neutrophils),[5],2.43 ± 1.39 10^9/L
same,ABRETIC,[5],338.6 ± 20.2 10^9/L
same,APTT,[5],16.2 ± 1.82 s
same,HCT,[5],42.18 ± 0.92%
same,HGB,[5],12.68 ± 0.34 g/dL
same,MCH,[5],18.28 ± 0.56 pg
same,MCHC,[5],30.08 ± 0.52 g/dL
same,MCV,[5],60.78 ± 1.44 fL
same,MPV,[5],9.05 ± 0.36 fL
same,PLT,[5],1421.5 ± 225.3 10^9/L
same,PT,[5],20.87 ± 1.2 s
same,RBC,[5],6.94 ± 0.18 10^12/L
same,WBC,[5],13.19 ± 3.49 10^9/L
same,ABBASO (basophils),[6],0.005 ± 0.006 10^9/L
same,ABEOS (eosinophils),[6],0.088 ± 0.013 10^9/L
same,ABLYMP (lymphocytes),[6],7.695 ± 0.12 10^9/L
same,ABMONO (monocytes),[6],0.283 ± 0.124 10^9/L
same,ABNEUT (neutrophils),[6],1.185 ± 0.375 10^9/L
same,ABRETIC,[6],250.78 ± 19.32 10^9/L
same,APTT,[6],17.44 ± 0.85 s
same,HCT,[6],48.4 ± 1.29%
same,HGB,[6],15.1 ± 0.41 g/dL
same,MCH,[6],18.63 ± 1.63 pg
same,MCHC,[6],31.23 ± 0.69 g/dL
same,MCV,[6],59.58 ± 4.36 fL
same,MPV,[6],9.35 ± 0.33 fL
same,PLT,[6],862.8 ± 95.1 10^9/L
same,PT,[6],19.76 ± 0.92 s
same,RBC,[6],8.163 ± 0.679 10^12/L
same,WBC,[6],9.315 ± 0.344 10^9/L
same,ABBASO (basophils),[7],0.012 ± 0.008 10^9/L
same,ABEOS (eosinophils),[7],0.086 ± 0.059 10^9/L
same,ABLYMP (lymphocytes),[7],10.178 ± 2.676 10^9/L
same,ABMONO (monocytes),[7],0.262 ± 0.043 10^9/L
same,ABNEUT (neutrophils),[7],1.498 ± 0.573 10^9/L
same,ABRETIC,[7],252.72 ± 25.77 10^9/L
same,APTT,[7],17.86 ± 1.84 s
same,HCT,[7],47.5 ± 1.89%
same,HGB,[7],14.72 ± 0.59 g/dL
same,MCH,[7],18.6 ± 0.49 pg
same,MCHC,[7],30.98 ± 0.24 g/dL
same,MCV,[7],60.06 ± 2.02 fL
same,PLT,[7],878 ± 118.5 10^9/L
same,PT,[7],19.88 ± 0.94 s
same,RBC,[7],7.916 ± 0.383 10^12/L
same,WBC,[7],12.12 ± 2.998 10^9/L
same,ABBASO (basophils),[8],0.01 ± 0.01 10^9/L
same,ABEOS (eosinophils),[8],0.11 ± 0.062 10^9/L
same,ABLYMP (lymphocytes),[8],8.444 ± 1.168 10^9/L
same,ABMONO (monocytes),[8],0.27 ± 0.06 10^9/L
same,ABNEUT (neutrophils),[8],1.742 ± 0.58 10^9/L
same,ABRETIC,[8],270.82 ± 25.29 10^9/L
same,APTT,[8],17.34 ± 1.96 s
same,HCT,[8],47.62 ± 1.59%
same,HGB,[8],14.6 ± 0.55 g/dL
same,MCH,[8],18.86 ± 0.15 pg
same,MCV,[8],61.52 ± 0.65 fL
same,MPV,[8],9.26 ± 0.24 fL
same,PLT,[8],985.4 ± 65 10^9/L
same,PT,[8],20.14 ± 0.95 s
same,RBC,[8],7.742 ± 0.232 10^12/L
same,WBC,[8],10.654 ± 1.291 10^9/L
